This assay relates to undifferentiated hESCs. As to the kind of experiment: Cardiac induction of undifferentiated hESCs in defined culture by NAM (marker immunostaining, beating cardiomyocytes). It is filed as cell-based, human. From the text:
(b) Cardiac fate switch direct of the pluripotent state of hESCs induced by nicotinamide. NAM-induced Oct-4-negative cells began to express the cardiac specific transcription factor (Csx) Nkx2.5 (green) and alpha-actinin (red), consistent with early cardiac differentiation. […] All cells are indicated by DAPI staining of their nuclei (blue). Insets at the top better visualize individual cells at higher-magnification.
(Stage 1—Human Cardiomesodermal Cells) (FIGS. 1; 2a, b). Increased intensity of Nkx2.5 was usually observed in areas of the colonies where cells began to pile up (FIG. 2b). These differentiating hESCs then formed cardioblasts that uniformly expressed Nkx2.5 in suspension (Stage 2—Human Cardiac Precursor Cells) (FIGS. 1; 3a). […] (FIGS. 1, 3b). Cells within the beating cardiospheres expressed markers characteristic of cardiomyocytes (FIG. 3b). The cardiomyocytes can retain their strong contractility for over 3 months. Electrical profiles of the cardiomyocytes confirmed their contractions to be strong rhythmic impulses reminiscent of the p-QRS-T-complexes seen from body surface electrodes in clinical electrocardiograms (FIG. 3c). Cardiac specific transcription factor (Csx) Nkx2.5 is an evolutionally conserved homeobox transcription factor indispensable for normal cardiac development. The onset and pattern of early Nkx2.5 expression roughly coincide with the timing and area of cardiac specification, and Nkx2.5 gene continues to be expressed through development in the heart. Expression of Nkx2.5 is the earliest marker for heart precursor cells in all vertebrates so far examined and is essential for proper cardiac septation and formation/maturation of electrical conduction system.

With `NC(=O)c1cccnc1` [NAM, nicotinamide], the “expression of cardiac-specific transcription factor Csx/Nkx2.5” value (NAM 10 mM, defined culture) is “began expressing the earliest marker for heart precursor, Csx/Nkx2.5”. In addition, for the setting “NAM 10 mM, defined culture, all the cells within the colony”, the “expression of pluripotence-associated markers (e.g., Oct-4)” value is listed as “down-regulated the expression of pluripotence-associated markers”. Under “cardioblasts attached, further NAM treatment, after withdrawal of NAM, vs untreated control”, the “appearance of beating cardiomyocytes” value is listed as “drastic increase in efficiency”.

These data come from patent US20160115446A1, “Technologies, Methods, and Products of Small Molecule Directed Tissue and Organ Regeneration from Human Pluripotent Stem Cells” (SAN DIEGO REGENERATIVE MEDICINE INSTITUTE, priority 2014, published 2016).
